{"source": "paper PMC3272148", "about": "(2011)", "key": {"[1]": {"molecular_target": "T1, 5-HT2C receptor (Oryctolagus cuniculus, UniProt G1TAG7)", "T1 sequence (G1TAG7 33-453)": "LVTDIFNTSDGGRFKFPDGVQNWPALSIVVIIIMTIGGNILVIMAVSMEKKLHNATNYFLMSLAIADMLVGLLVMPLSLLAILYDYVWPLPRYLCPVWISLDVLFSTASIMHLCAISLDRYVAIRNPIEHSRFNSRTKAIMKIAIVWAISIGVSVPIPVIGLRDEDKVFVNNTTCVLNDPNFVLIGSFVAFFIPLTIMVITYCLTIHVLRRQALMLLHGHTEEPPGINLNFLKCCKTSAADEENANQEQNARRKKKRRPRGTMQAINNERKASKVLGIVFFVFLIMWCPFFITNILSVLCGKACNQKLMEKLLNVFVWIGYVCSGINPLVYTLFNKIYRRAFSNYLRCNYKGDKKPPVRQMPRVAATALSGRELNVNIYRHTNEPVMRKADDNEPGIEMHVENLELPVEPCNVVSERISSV", "assay": "[3H]mesulergine competition radioligand binding"}, "[2]": {"molecular_target": "T2, dopamine1 (D1) receptor (Oryctolagus cuniculus, UniProt G1SML2)", "T2 sequence (G1SML2 1-448)": "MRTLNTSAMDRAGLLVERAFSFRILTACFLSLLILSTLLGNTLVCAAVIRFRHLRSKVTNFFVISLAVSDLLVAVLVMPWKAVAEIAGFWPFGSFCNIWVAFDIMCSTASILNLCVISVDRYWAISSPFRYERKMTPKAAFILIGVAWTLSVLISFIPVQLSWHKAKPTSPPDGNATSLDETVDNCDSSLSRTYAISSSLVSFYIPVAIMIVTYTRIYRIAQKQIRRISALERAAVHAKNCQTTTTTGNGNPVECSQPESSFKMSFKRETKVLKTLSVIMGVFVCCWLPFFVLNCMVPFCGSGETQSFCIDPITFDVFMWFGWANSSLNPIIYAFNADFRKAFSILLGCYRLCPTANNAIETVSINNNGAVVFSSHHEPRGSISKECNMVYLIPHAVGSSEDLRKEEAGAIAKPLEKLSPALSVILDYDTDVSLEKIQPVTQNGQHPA", "assay": "[3H]SCH23390 competition radioligand binding"}, "[3]": {"molecular_target": "T2, dopamine1 (D1) receptor", "assay": "[3H]SCH23390 saturation radioligand binding"}, "[4]": {"molecular_target": "serotonin2A (5-HT2A) receptor (Oryctolagus cuniculus, UniProt G1SYA7)", "sequence (G1SYA7 1-469)": "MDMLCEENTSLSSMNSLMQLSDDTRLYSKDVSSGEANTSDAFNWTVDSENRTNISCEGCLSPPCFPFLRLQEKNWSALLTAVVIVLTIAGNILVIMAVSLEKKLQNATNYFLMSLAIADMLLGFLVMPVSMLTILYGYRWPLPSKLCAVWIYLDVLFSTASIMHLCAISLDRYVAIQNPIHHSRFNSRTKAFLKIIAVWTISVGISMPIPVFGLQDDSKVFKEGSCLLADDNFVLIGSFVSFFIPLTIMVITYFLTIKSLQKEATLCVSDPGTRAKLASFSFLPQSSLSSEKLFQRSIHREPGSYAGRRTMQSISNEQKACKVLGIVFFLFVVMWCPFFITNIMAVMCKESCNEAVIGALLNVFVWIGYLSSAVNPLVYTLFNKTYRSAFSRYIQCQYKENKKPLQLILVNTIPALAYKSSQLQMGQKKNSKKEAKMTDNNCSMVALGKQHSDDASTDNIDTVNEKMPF", "assay": "[3H]ketanserin saturation radioligand binding"}, "[5]": {"molecular_target": "T1, 5-HT2C receptor", "assay": "[3H]mesulergine saturation radioligand binding"}}}
{"smiles": "COc1cc(CC(C)N)c(OC)cc1I", "note": "(racemic) [DOI, (±)-1-(2,5-dimethoxy-4-iodophenyl)-2-aminopropane]", "values": [{"measurement": "Ki", "setting": "[1]", "result": 73.5, "unit": "nM"}]}
{"smiles": "CCN(CC)C(=O)[C@@H]1C=C2c3cccc4[nH]cc(c34)C[C@H]2N(C)C1", "note": "[LSD]", "values": [{"measurement": "Ki", "setting": "[2]", "result": 161, "unit": "nM"}, {"measurement": "Ki", "setting": "[1]", "result": 7.5, "unit": "nM"}]}
{"smiles": "CN1CCc2cc(Cl)c(O)cc2[C@@H](c2ccccc2)C1", "note": "[SCH23390]", "values": [{"measurement": "[3H]SCH23390 saturation radioligand binding (Bmax)", "setting": "[3]", "result": "Dopamine1 receptor density was quantified using eight concentrations of the antagonist radioligand, [^3H]SCH23390"}]}
{"smiles": "O=C(c1ccc(F)cc1)C1CCN(CCn2c(=O)[nH]c3ccccc3c2=O)CC1", "note": "[ketanserin]", "values": [{"measurement": "Kd", "setting": "[4]", "result": 0.21, "unit": "nM"}]}
{"smiles": "CN1C[C@@H](NS(=O)(=O)N(C)C)C[C@@H]2c3cccc4c3c(cn4C)C[C@H]21", "note": "[mesulergine]", "values": [{"measurement": "[3H]mesulergine saturation radioligand binding (Bmax)", "setting": "[5]", "result": "Serotonin2C receptor density was quantified using eight concentrations of the antagonist radioligand, [^3H]mesulergine"}]}
